The values below come from patent publication US20130072473A1, “COMPOUNDS FOR TREATING PROTEIN FOLDING DISORDERS” (PROTEOSTASIS THERAPEUTICS, INC., priority 2011, published 2013).

The experiment addresses T1, ΔF508 expressing CFBE410- lung cells (Homo sapiens, UniProt P13569, DEL508-508).
T1 construct: host or cells: CFBE41o- lung cells
Kind of experiment: CFTR folding and trafficking assay (immunoblot of band B and C glycoforms). As to conditions: CFBE410- lung cells cultured in presence of compound versus DMSO; FIG. 1. It is filed as cell-based. Here is the method:
CFTR transport assays. Either ΔF508 expressing CFBE410- lung cells were cultured in the presence or absence of reagent in 12 well Sarstedt dishes, harvested, lysed and the processing of CFTR from the band B to the band C glycoform detected by SDS-PAGE and immunoblotting using either monoclonal 3G11 or M3A7.
Quantitation of CFTR glycoforms: Immunoblot exposures were selected to allow visualization of CFTR recovery under identical protein loads in same SDS-PAGE for all treatments. Given the dynamic range, quantitation of the band B and C glycoforms was made by analysis of band intensities that were in the linear range. The x-ray films were exposed for increasing time and the different exposures were quantified using a FluroChemSP (Alpha Inotech) densitometer/software package. Where band B and C were quantified from different exposures, an internal reference was used to normalize the signal intensity. This method is described in more detail in Hutt et al. (2010).^16 Reduced histone deacetylase 7 activity restores function to misfolded CFTR in cystic fibrosis, Nature Chemical Biology (2010), 6(1), 25-33, the contents of which are expressly incorporated by reference herein.
(A western blot detects proteins with antibodies after separation by electrophoresis.)

T1 sequence (P13569 with tags, fused parts or gaps DEL508-508): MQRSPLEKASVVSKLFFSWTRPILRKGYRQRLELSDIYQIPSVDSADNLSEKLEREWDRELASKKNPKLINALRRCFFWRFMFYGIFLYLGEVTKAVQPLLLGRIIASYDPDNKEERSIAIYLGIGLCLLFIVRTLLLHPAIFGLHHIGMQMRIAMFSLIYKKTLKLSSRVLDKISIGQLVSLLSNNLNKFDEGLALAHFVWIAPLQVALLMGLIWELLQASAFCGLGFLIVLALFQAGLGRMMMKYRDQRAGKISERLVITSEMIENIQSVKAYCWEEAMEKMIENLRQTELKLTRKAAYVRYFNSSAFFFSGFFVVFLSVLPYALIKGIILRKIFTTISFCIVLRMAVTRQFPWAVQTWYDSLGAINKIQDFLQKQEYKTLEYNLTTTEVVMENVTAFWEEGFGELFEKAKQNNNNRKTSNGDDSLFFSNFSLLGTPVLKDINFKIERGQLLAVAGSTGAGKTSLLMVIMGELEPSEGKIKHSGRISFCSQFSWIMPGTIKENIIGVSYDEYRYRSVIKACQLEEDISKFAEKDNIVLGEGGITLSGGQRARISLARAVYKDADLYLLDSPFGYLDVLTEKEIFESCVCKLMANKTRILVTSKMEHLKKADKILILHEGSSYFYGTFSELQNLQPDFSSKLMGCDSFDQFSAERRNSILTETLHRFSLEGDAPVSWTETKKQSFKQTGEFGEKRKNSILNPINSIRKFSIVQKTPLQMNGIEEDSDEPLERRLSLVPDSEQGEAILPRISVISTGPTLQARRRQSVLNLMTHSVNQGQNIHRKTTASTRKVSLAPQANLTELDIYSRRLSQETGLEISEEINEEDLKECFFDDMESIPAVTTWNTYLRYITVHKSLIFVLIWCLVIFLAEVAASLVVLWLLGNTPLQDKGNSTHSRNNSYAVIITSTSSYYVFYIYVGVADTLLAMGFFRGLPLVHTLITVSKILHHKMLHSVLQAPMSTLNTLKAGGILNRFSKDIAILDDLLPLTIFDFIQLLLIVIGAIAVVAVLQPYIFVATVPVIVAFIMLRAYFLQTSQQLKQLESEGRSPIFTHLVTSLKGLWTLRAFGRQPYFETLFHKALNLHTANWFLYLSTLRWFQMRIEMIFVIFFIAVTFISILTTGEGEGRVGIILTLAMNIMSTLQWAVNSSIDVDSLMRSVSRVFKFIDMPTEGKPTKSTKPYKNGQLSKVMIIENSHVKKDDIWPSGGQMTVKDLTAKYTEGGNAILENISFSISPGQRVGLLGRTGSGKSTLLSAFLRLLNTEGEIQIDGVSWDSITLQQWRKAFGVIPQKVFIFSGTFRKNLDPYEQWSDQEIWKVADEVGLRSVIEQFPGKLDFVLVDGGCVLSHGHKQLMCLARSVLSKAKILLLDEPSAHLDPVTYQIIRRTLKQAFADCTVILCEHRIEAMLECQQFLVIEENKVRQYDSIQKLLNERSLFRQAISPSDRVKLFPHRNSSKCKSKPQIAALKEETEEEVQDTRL

For the compound `CCN1CCc2c(sc(NC(C)=O)c2-c2nc3ccccc3s2)C1` [Example 2, N-(3-(benzo[d]thiazol-2-yl)-6-ethyl-4,5,6,7-tetrahydrothieno[2,3-c]pyridin-2-yl)acetamide], the “levels of CFTR band B and C by immunoblot” value is “enhanced levels of band B and C”.
